# Source: ChEMBL document CHEMBL1201862, “PubChem BioAssay data set” (2004)
#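 48-hour exposure; five concentrations; linearly interpolated endpoints. GI50: concentration for 50% inhibition of growth.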 Active and inactive are the calls of the source. Cut-off read from the data, not from the text of the source: active = GI50 up to about 1.1 µM and inactive = higher.
# Tests used:
# Experiment in all cases: DTP human tumour cell line panel, 48 h
# 786-0 = system: 786-0
# A498 = system: A498
# A549 = system: A549
# ACHN = system: ACHN
# CAKI-1 = system: CAKI-1
# CCRF-CEM = system: CCRF-CEM
# COLO 205 = system: COLO 205
# DLD-1 = system: DLD-1
# DMS-273 = system: DMS-273
# EKVX = system: EKVX
# HCT-116 = system: HCT-116
# HCT-15 = system: HCT-15
# HL-60 = system: HL-60
# HOP-18 = system: HOP-18
# HOP-62 = system: HOP-62
# HOP-92 = system: HOP-92
# HT-29 = system: HT-29
# IGROV-1 = system: IGROV-1
# K562 = system: K562
# KM-20L2 = system: KM-20L2
# LXFL 529 = system: LXFL 529
# M14 = system: M14
# M19-MEL = system: M19-MEL
# MOLT-4 = system: MOLT-4
# NCI-H23 = system: NCI-H23
# NCI-H460 = system: NCI-H460
# NCI-H522 = system: NCI-H522
# OVCAR-3 = system: OVCAR-3
# OVCAR-4 = system: OVCAR-4
# OVCAR-5 = system: OVCAR-5
# OVCAR-8 = system: OVCAR-8
# RPMI-8226 = system: RPMI-8226
# RXF 393 = system: RXF 393
# RXF 631 = system: RXF 631
# SF-268 = system: SF-268
# SF-295 = system: SF-295
# SF-539 = system: SF-539
# SK-MEL-28 = system: SK-MEL-28
# SK-MEL-2 = system: SK-MEL-2
# SK-MEL-5 = system: SK-MEL-5
# SK-OV-3 = system: SK-OV-3
# SN12C = system: SN12C
# SNB-19 = system: SNB-19
# SNB-78 = system: SNB-78
# SW-620 = system: SW-620
# TK-10 = system: TK-10
# U-251 = system: U-251
# UACC-257 = system: UACC-257
# UACC-62 = system: UACC-62
# UO-31 = system: UO-31
# XF498 = system: XF498
# HCC 2998 = system: HCC 2998
# KM12 = system: KM12
# LOX IMVI = system: LOX IMVI
# Malme-3M = system: Malme-3M
# NCI-H226 = system: NCI-H226
# SNB-75 = system: SNB-75
# SR = system: SR
# DMS-114 = system: DMS-114
# Hs-578T = system: Hs-578T
# T47D = system: T47D
smiles,measurement,setting,value
Cn1c2c(c3ccccc31)CCN(CCCCN1CCCCC1)C2=O,GI50,786-0,> 100 µM (inactive)
same,GI50,A498,> 100 µM (inactive)
same,GI50,A549,> 100 µM (inactive)
same,GI50,ACHN,> 100 µM (inactive)
same,GI50,CAKI-1,> 100 µM (inactive)
same,GI50,CCRF-CEM,> 100 µM (inactive)
same,GI50,COLO 205,> 100 µM (inactive)
same,GI50,DLD-1,> 100 µM (inactive)
same,GI50,DMS-273,> 100 µM (inactive)
same,GI50,EKVX,> 100 µM (inactive)
same,GI50,HCT-116,84.5 µM (inactive)
same,GI50,HCT-15,> 100 µM
same,GI50,HL-60,> 100 µM (inactive)
same,GI50,HOP-18,> 100 µM (inactive)
same,GI50,HOP-62,> 100 µM (inactive)
same,GI50,HOP-92,> 100 µM (inactive)
same,GI50,HT-29,61 µM (inactive)
same,GI50,IGROV-1,> 100 µM (inactive)
same,GI50,K562,> 100 µM (inactive)
same,GI50,KM-20L2,> 100 µM (inactive)
same,GI50,LXFL 529,> 100 µM (inactive)
same,GI50,M14,99.1 µM (inactive)
same,GI50,M19-MEL,60.1 µM (inactive)
same,GI50,MOLT-4,> 100 µM (inactive)
same,GI50,NCI-H23,> 100 µM (inactive)
same,GI50,NCI-H460,> 100 µM (inactive)
same,GI50,NCI-H522,> 100 µM (inactive)
same,GI50,OVCAR-3,> 100 µM (inactive)
same,GI50,OVCAR-4,> 100 µM (inactive)
same,GI50,OVCAR-5,> 100 µM (inactive)
same,GI50,OVCAR-8,> 100 µM (inactive)
same,GI50,RPMI-8226,> 100 µM (inactive)
same,GI50,RXF 393,> 100 µM (inactive)
same,GI50,RXF 631,> 100 µM (inactive)
same,GI50,SF-268,51.1 µM (inactive)
same,GI50,SF-295,> 100 µM (inactive)
same,GI50,SF-539,> 100 µM (inactive)
same,GI50,SK-MEL-28,16.8 µM (inactive)
same,GI50,SK-MEL-2,> 100 µM (inactive)
same,GI50,SK-MEL-5,> 100 µM (inactive)
same,GI50,SK-OV-3,> 100 µM (inactive)
same,GI50,SN12C,> 100 µM (inactive)
same,GI50,SNB-19,> 100 µM (inactive)
same,GI50,SNB-78,43.1 µM (inactive)
same,GI50,SW-620,> 100 µM (inactive)
same,GI50,TK-10,> 100 µM (inactive)
same,GI50,U-251,> 100 µM (inactive)
same,GI50,UACC-257,62.7 µM (inactive)
same,GI50,UACC-62,28.3 µM (inactive)
same,GI50,UO-31,> 100 µM (inactive)
same,GI50,XF498,> 100 µM (inactive)
Cc1cc(C)c2[s+]snc2c1,GI50,786-0,> 100 µM (inactive)
same,GI50,A498,37.7 µM (inactive)
same,GI50,A549,95.1 µM (inactive)
same,GI50,ACHN,> 100 µM (inactive)
same,GI50,CAKI-1,93.8 µM (inactive)
same,GI50,CCRF-CEM,28.5 µM (inactive)
same,GI50,COLO 205,> 100 µM (inactive)
same,GI50,DLD-1,> 100 µM (inactive)
same,GI50,DMS-273,47.1 µM (inactive)
same,GI50,EKVX,> 100 µM (inactive)
same,GI50,HCC 2998,> 100 µM (inactive)
same,GI50,HCT-116,39.3 µM (inactive)
same,GI50,HL-60,18.3 µM (inactive)
same,GI50,HOP-18,44.8 µM (inactive)
same,GI50,HOP-62,82.4 µM (inactive)
same,GI50,HT-29,52.5 µM (inactive)
same,GI50,IGROV-1,> 100 µM (inactive)
same,GI50,K562,27.7 µM (inactive)
same,GI50,KM-20L2,> 100 µM (inactive)
same,GI50,KM12,95.7 µM (inactive)
same,GI50,LOX IMVI,37.8 µM (inactive)
same,GI50,LXFL 529,34.4 µM (inactive)
same,GI50,M14,37.8 µM (inactive)
same,GI50,M19-MEL,> 100 µM (inactive)
same,GI50,MOLT-4,33.9 µM (inactive)
same,GI50,Malme-3M,> 100 µM (inactive)
same,GI50,NCI-H226,> 100 µM (inactive)
same,GI50,NCI-H23,54 µM (inactive)
same,GI50,NCI-H460,75.7 µM (inactive)
same,GI50,NCI-H522,31.1 µM (inactive)
same,GI50,OVCAR-3,97.9 µM (inactive)
same,GI50,OVCAR-4,> 100 µM (inactive)
same,GI50,OVCAR-5,> 100 µM (inactive)
same,GI50,OVCAR-8,33.7 µM (inactive)
same,GI50,RXF 393,37.4 µM (inactive)
same,GI50,RXF 631,96.6 µM (inactive)
same,GI50,SF-268,60.5 µM (inactive)
same,GI50,SF-295,> 100 µM (inactive)
same,GI50,SF-539,70 µM (inactive)
same,GI50,SK-MEL-28,62.1 µM (inactive)
same,GI50,SK-MEL-2,75 µM (inactive)
same,GI50,SK-MEL-5,> 100 µM (inactive)
same,GI50,SK-OV-3,> 100 µM (inactive)
same,GI50,SN12C,47.1 µM (inactive)
same,GI50,SNB-19,> 100 µM (inactive)
same,GI50,SNB-75,> 100 µM (inactive)
same,GI50,SNB-78,84.3 µM (inactive)
same,GI50,SR,23.8 µM (inactive)
same,GI50,SW-620,37.6 µM (inactive)
same,GI50,TK-10,> 100 µM (inactive)
same,GI50,U-251,48.9 µM (inactive)
same,GI50,UACC-257,72.3 µM (inactive)
same,GI50,UACC-62,36.6 µM (inactive)
same,GI50,UO-31,39.5 µM (inactive)
same,GI50,XF498,30 µM (inactive)
CC[C@@]1(O)C(=O)OCc2c1cc1n(c2=O)Cc2cc3c(OC)cccc3nc2-1,GI50,786-0,0.211 µM (active)
same,GI50,A498,0.6 µM (active)
same,GI50,CCRF-CEM,< 0.01 µM (active)
same,GI50,COLO 205,1.21 µM (inactive)
same,GI50,DLD-1,0.27 µM (active)
same,GI50,DMS-114,< 0.01 µM (active)
same,GI50,DMS-273,< 0.01 µM (active)
same,GI50,EKVX,2.04 µM (inactive)
same,GI50,HCT-15,0.805 µM
same,GI50,HL-60,< 0.01 µM (active)
same,GI50,HOP-18,0.0425 µM (active)
same,GI50,HOP-92,0.0432 µM (active)
same,GI50,Hs-578T,12.8 µM (inactive)
same,GI50,K562,0.171 µM (active)
same,GI50,KM-20L2,0.0622 µM (active)
same,GI50,KM12,0.867 µM (active)
same,GI50,LOX IMVI,< 0.1 µM (active)
same,GI50,LXFL 529,0.492 µM (active)
same,GI50,M14,0.2 µM (active)
same,GI50,M19-MEL,0.056 µM (active)
same,GI50,MOLT-4,0.14 µM (active)
same,GI50,Malme-3M,0.348 µM (active)
same,GI50,NCI-H226,0.267 µM (active)
same,GI50,NCI-H23,< 0.1 µM (active)
same,GI50,NCI-H522,0.145 µM (active)
same,GI50,OVCAR-3,0.521 µM (active)
same,GI50,OVCAR-4,1.06 µM (active)
same,GI50,OVCAR-5,0.417 µM (active)
same,GI50,RPMI-8226,0.0158 µM (active)
same,GI50,RXF 393,0.308 µM (active)
same,GI50,RXF 631,0.0628 µM (active)
same,GI50,SF-268,< 0.1 µM (active)
same,GI50,SF-295,< 0.1 µM (active)
same,GI50,SF-539,< 0.1 µM (active)
same,GI50,SK-MEL-2,0.834 µM (active)
same,GI50,SK-MEL-5,0.116 µM (active)
same,GI50,SK-OV-3,0.117 µM (active)
same,GI50,SN12C,< 0.1 µM (active)
same,GI50,SNB-19,< 0.1 µM (active)
same,GI50,SNB-75,0.0622 µM (active)
same,GI50,SR,0.1 µM (active)
same,GI50,SW-620,0.196 µM (active)
same,GI50,T47D,0.0194 µM (active)
same,GI50,TK-10,3.74 µM (inactive)
same,GI50,UACC-257,0.558 µM (active)
same,GI50,UACC-62,< 0.1 µM (active)
same,GI50,XF498,0.0942 µM (active)
